Reference: patent US20230085307A1, “PYRIDAZINONE COMPOUND AND HERBICIDE” (NISSAN CHEMICAL CORPORATION, priority 2019, published 2023)

The molecules below were run on Chinese sprangletop (assay: Test Example 3: herbicidal effect by foliage application, Wagner pot (Table 18, symbol D)). Conditions: 320 g/ha.
Assay type: in vivo, chinese sprangletop (Leptochloa chinensis)
In short: (§1)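 Plants were sown in alluvial soil held under 0.1–0.5 cm standing water and grown 14 days in a greenhouse at 25–30 °C. An emulsifiable formulation, water-diluted to the set dose, was then sprayed onto the foliage, and effects were scored three weeks later using previously defined criteria.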

Compound	herbicidal effect on Chinese sprangletop (D)
CCSc1cccc(-c2sc3c(C)cccc3c2-c2c(O)c(C)nn(C)c2=O)c1 [4-122]	0 (Herbicidal rate of 5% or less (almost no effect))
Cc1nn(C)c(=O)c(-c2c(-c3ccc(C(C)C)cc3)sc3cc(F)c(F)cc23)c1O [5-005]	5 (Herbicidal rate of 90% or more (almost completely withered))

What follows are molecules tested on southern crabgrass (assay: Test Example 5: herbicidal effect by foliage application, plastic box (Table 20, symbol F)). Conditions: amount of applied herbicide 320 g/ha; foliage application after 14-day growth; evaluated three weeks after application.
Assay type: in vivo, southern crabgrass (Digitaria ciliaris)
In short: (§2)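 Foliar spray test: emulsion formulation diluted in water to a set application rate, sprayed onto 14-day-old plants raised in diluvial soil at 25° C to 30° C under glass. Both herbicidal effect and crop effect rated visually three weeks later.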

Compound	Herbicidal effect by foliage application, F: southern crabgrass
CCSc1cccc(-c2sc3c(C)cccc3c2-c2c(O)c(C)nn(C)c2=O)c1 [4-122]	3 (Herbicidal rate of 40% or more and less than 70%)
Cc1nn(C)c(=O)c(-c2c(-c3ccc(C(C)C)cc3)sc3cc(F)c(F)cc23)c1O [5-005]	0 (Herbicidal rate of 5% or less (almost no effect))

Each molecule was assayed on green foxtail (assay: Test Example 5: herbicidal effect by foliage application, plastic box (Table 20, symbol G)). Conditions: amount of applied herbicide 320 g/ha; foliage application after 14-day growth; evaluated three weeks after application.
Assay type: in vivo, green foxtail (Setaria viridis)
In short: as §2

Compound	Herbicidal effect by foliage application, G: green foxtail
CCSc1cccc(-c2sc3c(C)cccc3c2-c2c(O)c(C)nn(C)c2=O)c1 [4-122]	1 (Herbicidal rate of 5% or more and less than 20%)
Cc1nn(C)c(=O)c(-c2c(-c3ccc(C(C)C)cc3)sc3cc(F)c(F)cc23)c1O [5-005]	0 (Herbicidal rate of 5% or less (almost no effect))

The molecules below were run on rice flat sedge (assay: Test Example 3: herbicidal effect by foliage application, Wagner pot (Table 18, symbol E)). Conditions: 320 g/ha.
Assay type: in vivo, rice flat sedge (Cyperus iria)
In short: as §1

Compound	herbicidal effect on rice flat sedge (E)
CCSc1cccc(-c2sc3c(C)cccc3c2-c2c(O)c(C)nn(C)c2=O)c1 [4-122]	4 (Herbicidal rate of 70% or more and less than 90%)
Cc1nn(C)c(=O)c(-c2c(-c3ccc(C(C)C)cc3)sc3cc(F)c(F)cc23)c1O [5-005]	4 (Herbicidal rate of 70% or more and less than 90%)

What follows are molecules tested on windgrass (assay: Test Example 5: herbicidal effect by foliage application, plastic box (Table 20, symbol L)). Conditions: amount of applied herbicide 320 g/ha; foliage application after 14-day growth; evaluated three weeks after application.
Assay type: in vivo, windgrass (Apera spica-venti)
In short: as §2

Compound	Herbicidal effect by foliage application, L: windgrass
CCSc1cccc(-c2sc3c(C)cccc3c2-c2c(O)c(C)nn(C)c2=O)c1 [4-122]	4 (Herbicidal rate of 70% or more and less than 90%)
Cc1nn(C)c(=O)c(-c2c(-c3ccc(C(C)C)cc3)sc3cc(F)c(F)cc23)c1O [5-005]	0 (Herbicidal rate of 5% or less (almost no effect))

The molecules below were run on wild oat (assay: Test Example 5: herbicidal effect by foliage application, plastic box (Table 20, symbol I)). Conditions: amount of applied herbicide 320 g/ha; foliage application after 14-day growth; evaluated three weeks after application.
Assay type: in vivo, wild oat (Avena fatua)
In short: as §2

Compound	Herbicidal effect by foliage application, I: wild oat
CCSc1cccc(-c2sc3c(C)cccc3c2-c2c(O)c(C)nn(C)c2=O)c1 [4-122]	0 (Herbicidal rate of 5% or less (almost no effect))
Cc1nn(C)c(=O)c(-c2c(-c3ccc(C(C)C)cc3)sc3cc(F)c(F)cc23)c1O [5-005]	0 (Herbicidal rate of 5% or less (almost no effect))

What follows are molecules tested on velvetleaf (assay: Test Example 5: herbicidal effect by foliage application, plastic box (Table 20, symbol M)). Conditions: amount of applied herbicide 320 g/ha; foliage application after 14-day growth; evaluated three weeks after application.
Assay type: in vivo, velvetleaf (Abutilon theophrasti)
In short: as §2

Compound	Herbicidal effect by foliage application, M: velvetleaf
CCSc1cccc(-c2sc3c(C)cccc3c2-c2c(O)c(C)nn(C)c2=O)c1 [4-122]	4 (Herbicidal rate of 70% or more and less than 90%)
Cc1nn(C)c(=O)c(-c2c(-c3ccc(C(C)C)cc3)sc3cc(F)c(F)cc23)c1O [5-005]	3 (Herbicidal rate of 40% or more and less than 70%)

The molecules below were run on blackgrass (assay: Test Example 5: herbicidal effect by foliage application, plastic box (Table 20, symbol J)). Conditions: amount of applied herbicide 320 g/ha; foliage application after 14-day growth; evaluated three weeks after application.
Assay type: in vivo, blackgrass (Alopecurus myosuroides)
In short: as §2

Compound	Herbicidal effect by foliage application, J: blackgrass
CCSc1cccc(-c2sc3c(C)cccc3c2-c2c(O)c(C)nn(C)c2=O)c1 [4-122]	1 (Herbicidal rate of 5% or more and less than 20%)
Cc1nn(C)c(=O)c(-c2c(-c3ccc(C(C)C)cc3)sc3cc(F)c(F)cc23)c1O [5-005]	0 (Herbicidal rate of 5% or less (almost no effect))

These molecules were tested on barnyard grass (assay: Test Example 3: herbicidal effect by foliage application, Wagner pot (Table 18, symbol H)). Conditions: 320 g/ha.
Assay type: in vivo, barnyard grass (Echinochloa crus-galli)
In short: as §1

Compound	herbicidal effect on barnyard grass (H)
CCSc1cccc(-c2sc3c(C)cccc3c2-c2c(O)c(C)nn(C)c2=O)c1 [4-122]	5 (Herbicidal rate of 90% or more (almost completely withered))
Cc1nn(C)c(=O)c(-c2c(-c3ccc(C(C)C)cc3)sc3cc(F)c(F)cc23)c1O [5-005]	3 (Herbicidal rate of 40% or more and less than 70%)

These molecules were tested on redroot pigweed (assay: Test Example 5: herbicidal effect by foliage application, plastic box (Table 20, symbol N)). Conditions: amount of applied herbicide 320 g/ha; foliage application after 14-day growth; evaluated three weeks after application.
Assay type: in vivo, redroot pigweed (Amaranthus retroflexus)
In short: as §2

Compound	Herbicidal effect by foliage application, N: redroot pigweed
CCSc1cccc(-c2sc3c(C)cccc3c2-c2c(O)c(C)nn(C)c2=O)c1 [4-122]	4 (Herbicidal rate of 70% or more and less than 90%)
Cc1nn(C)c(=O)c(-c2c(-c3ccc(C(C)C)cc3)sc3cc(F)c(F)cc23)c1O [5-005]	3 (Herbicidal rate of 40% or more and less than 70%)

Each molecule was assayed on lambsquarters (assay: Test Example 5: herbicidal effect by foliage application, plastic box (Table 20, symbol O)). Conditions: amount of applied herbicide 320 g/ha; foliage application after 14-day growth; evaluated three weeks after application.
Assay type: in vivo, lambsquarters (Chenopodium album)
In short: as §2

Compound	Herbicidal effect by foliage application, O: lambsquarters
CCSc1cccc(-c2sc3c(C)cccc3c2-c2c(O)c(C)nn(C)c2=O)c1 [4-122]	4 (Herbicidal rate of 70% or more and less than 90%)
Cc1nn(C)c(=O)c(-c2c(-c3ccc(C(C)C)cc3)sc3cc(F)c(F)cc23)c1O [5-005]	0 (Herbicidal rate of 5% or less (almost no effect))

What follows are molecules tested on chickweed (assay: Test Example 5: herbicidal effect by foliage application, plastic box (Table 20, symbol P)). Conditions: amount of applied herbicide 320 g/ha; foliage application after 14-day growth; evaluated three weeks after application.
Assay type: in vivo, common chickweed (Stellaria media)
In short: as §2

Compound	Herbicidal effect by foliage application, P: chickweed
CCSc1cccc(-c2sc3c(C)cccc3c2-c2c(O)c(C)nn(C)c2=O)c1 [4-122]	5 (Herbicidal rate of 90% or more (almost completely withered))
Cc1nn(C)c(=O)c(-c2c(-c3ccc(C(C)C)cc3)sc3cc(F)c(F)cc23)c1O [5-005]	5 (Herbicidal rate of 90% or more (almost completely withered))

Each molecule was assayed on barnyard grass (assay: Test Example 5: herbicidal effect by foliage application, plastic box (Table 20, symbol H)). Conditions: amount of applied herbicide 320 g/ha; foliage application after 14-day growth; evaluated three weeks after application.
Assay type: in vivo, barnyard grass (Echinochloa crus-galli)
In short: as §2

Compound	Herbicidal effect by foliage application, H: barnyard grass
CCSc1cccc(-c2sc3c(C)cccc3c2-c2c(O)c(C)nn(C)c2=O)c1 [4-122]	1 (Herbicidal rate of 5% or more and less than 20%)
Cc1nn(C)c(=O)c(-c2c(-c3ccc(C(C)C)cc3)sc3cc(F)c(F)cc23)c1O [5-005]	0 (Herbicidal rate of 5% or less (almost no effect))

The molecules below were run on persian speedwell (assay: Test Example 5: herbicidal effect by foliage application, plastic box (Table 20, symbol R)). Conditions: amount of applied herbicide 320 g/ha; foliage application after 14-day growth; evaluated three weeks after application.
Assay type: in vivo, Persian speedwell (Veronica persica)
In short: as §2

Compound	Herbicidal effect by foliage application, R: persian speedwell
CCSc1cccc(-c2sc3c(C)cccc3c2-c2c(O)c(C)nn(C)c2=O)c1 [4-122]	4 (Herbicidal rate of 70% or more and less than 90%)
Cc1nn(C)c(=O)c(-c2c(-c3ccc(C(C)C)cc3)sc3cc(F)c(F)cc23)c1O [5-005]	4 (Herbicidal rate of 70% or more and less than 90%)

These molecules were tested on Italian ryegrass (assay: Test Example 5: herbicidal effect by foliage application, plastic box (Table 20, symbol K)). Conditions: amount of applied herbicide 320 g/ha; foliage application after 14-day growth; evaluated three weeks after application.
Assay type: in vivo, Italian ryegrass (Lolium multiflorum)
In short: as §2

Compound	Herbicidal effect by foliage application, K: Italian ryegrass
CCSc1cccc(-c2sc3c(C)cccc3c2-c2c(O)c(C)nn(C)c2=O)c1 [4-122]	4 (Herbicidal rate of 70% or more and less than 90%)
Cc1nn(C)c(=O)c(-c2c(-c3ccc(C(C)C)cc3)sc3cc(F)c(F)cc23)c1O [5-005]	0 (Herbicidal rate of 5% or less (almost no effect))
